Laboratory results reported in patent US20220289679A1, “HETEROCYCLIC COMPOUND” (Takeda Pharmaceutical Company Limited, priority 2019, published 2022).

Molecular target: T1, human GCS (glucosylceramide synthase) (Homo sapiens, UniProt Q16739)
T1 construct: made in house; host or cells: Expi293F cells (transient expression; microsome fraction)
T1 sequence (Q16739 1-394): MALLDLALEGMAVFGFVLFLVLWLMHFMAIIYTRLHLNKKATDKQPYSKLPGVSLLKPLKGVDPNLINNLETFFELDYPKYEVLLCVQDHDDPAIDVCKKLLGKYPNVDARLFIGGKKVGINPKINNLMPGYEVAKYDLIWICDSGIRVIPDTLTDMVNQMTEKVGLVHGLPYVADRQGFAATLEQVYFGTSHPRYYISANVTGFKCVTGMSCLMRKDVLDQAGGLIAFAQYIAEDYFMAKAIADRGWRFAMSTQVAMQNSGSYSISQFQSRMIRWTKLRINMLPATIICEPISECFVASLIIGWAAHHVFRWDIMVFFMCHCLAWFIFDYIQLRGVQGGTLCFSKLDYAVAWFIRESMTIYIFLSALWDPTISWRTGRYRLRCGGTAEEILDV
Assay: Glucosylceramide Synthase (GCS) Assay
Type: biochemical
Conditions: test compound 10 μM; microsome fraction of Expi293F cells expressing human GCS; 1.7 μM UDP-glucose, 3 μM C8 ceramide; room temperature 60 min; C8 glucosylceramide by Rapidfire MS/MS
Procedure: In enzyme assay, a microsome fraction obtained by transient expression by Expi293F™ cells (catalog number: A14527, Thermo Fisher Scientific) was used as a glucosylceramide synthase source. Liposomal C8 ceramide and UDP-glucose were used as substrates. For each substrate concentration, 1.7 μM UDP-glucose, which is equal to the Km value, and 3 μM C8 ceramide were used. After the enzymatic reaction, the analysis was performed with Rapidfire MS/MS (API-4000™, SCIEX), and C8 glucosylceramide was quantified to evaluate the inhibitory activity of the test compound against glucosylceramide synthase activity.
PcDNA3.3TOPO vector (catalog number: K830001, Thermo Fisher Scientific) into which the human GCS gene was inserted was introduced into Expi293F™ Cells (catalog number: A14527, Thermo Fisher Scientific) by using ExpiFectamine™ 293 Transfection Kit (catalog number: A14525, Thermo Fisher Scientific). The cultured cells were dissolved in D-PBS (catalog number: 048-29805, Fuji Film Wako Pure Chemical Industries, Ltd.) containing 1 mM PMSF, and the solution was allowed to stand on ice for 30 minutes, and then subjected to cell disruption (homogenized). The disruption solution was centrifuged at 10,000×g for 20 minutes at 4° C., and the obtained supernatant was centrifuged at 142,400×g for 60 minutes at 4° C. The obtained precipitate was resuspended in a D-PBS solution containing 1 mM PMSF, and homogenized again to prepare as a microsome fraction. Protein quantification was performed by the CBB method.
A 1 mM compound solution prepared by dissolving the test compound in DMSO was added to a 384-well plate by 100 nL so that the final concentration of the test compound was 10 μM. Next, a substrate solution consisting of 3.4 μM UDP-glucose and 6 μM C8 ceramide was added by 5 μL, followed by an enzyme solution consisting of a 25 μg/mL microsome fraction by 5 μL. C8 ceramide was prepared from liposomes composed of 15 mol % C8 ceramide and 85 mol % dioleoyl phosphatidylcholine (1,2-dioleoyl-sn-glycero-3-phosphocholine: DOPC). The enzymatic reaction was carried out in a solution consisting of 20 mM tris-hydrochloric acid buffer (pH 7.5), 0.01% Tween 20, 0.01% bovine serum albumin and 1 mM dithiothreitol at room temperature for 60 min. Then, a solution consisting of 75% isopropanol and 1% formic acid containing 0.25 μM N-Octadecanoyl-D35-psichosine (catalog number: 1914, Matreya) as an internal standard substance was added by 60 μL to stop the enzymatic reaction. 5 μL of the centrifugal supernatant of the obtained reaction product was analyzed by Rapidfire MS/MS (Agilent Technologies) using API-4000™ (SCIEX), and the C8 glucosylceramide was quantified to evaluate the inhibitory activity of the test compound against the glucosylceramide synthase activity. The inhibitory activity of the test compound was evaluated when the C8 glucosylceramide level in the enzyme-free solution was considered as 100% inhibitory and the enzyme activity of the DMSO group in the absence of the compound was considered as 0% inhibitory.

GCS enzyme inhibitory rate at 10 μM (%) | SMILES
97 | O=C(Nc1ccc(C(O)C2CC2)nc1)c1cccn(-c2ccc(F)cc2OCC(F)(F)F)c1=O (single isomer, unassigned) [Example 116, (R or S)-N-{6-[cyclopropyl(hydroxy)methyl]pyridin-3-yl}-1-[4-fluoro-2-(2,2,2-trifluoroethoxy)phenyl]-2-oxo-1,2-dihydropyridine-3-carboxamide]

Same assay, conditions: test compound 10 μM; microsome fraction of Expi293F cells expressing human GCS; 1.7 μM UDP-glucose, 3 μM C8 ceramide; room temperature 60 min; C8 glucosylceramide by Rapidfire MS/MS; read-out: GCS enzyme inhibitory rate at 10 μM (%)

SMILES | inhibition at 10 µM [%]
CC(C)(O)c1ccc(NC(=O)c2ccnn(-c3ccccc3OCC(F)F)c2=O)cc1 [Example 133, 2-[2-(2,2-difluoroethoxy)phenyl]-N-[4-(2-hydroxypropan-2-yl)phenyl]-3-oxo-2,3-dihydropyridazine-4-carboxamide] | 100
CC(C)(O)c1ccc(NC(=O)c2ccnn(-c3ccc(F)cc3OCC(F)(F)F)c2=O)cn1 [Example 112, 2-[4-fluoro-2-(2,2,2-trifluoroethoxy)phenyl]-N-[6-(2-hydroxypropan-2-yl)pyridin-3-yl]-3-oxo-2,3-dihydropyridazine-4-carboxamide] | 94
O=C(Nc1ccc(C(O)(C(F)F)C(F)F)nc1)c1cccn(-c2ccnnc2OCC(F)(F)F)c1=O [Example 122, 2-oxo-N-[6-(1,1,3,3-tetrafluoro-2-hydroxypropan-2-yl)pyridin-3-yl]-1-[3-(2,2,2-trifluoroethoxy)pyridazin-4-yl]-1,2-dihydropyridine-3-carboxamide] | 95
CC(C)(O)c1ccc(NC(=O)c2cc(C(C)(C)O)nn(-c3ccccc3OCC(F)(F)F)c2=O)cc1 [Example 202, 6-(2-hydroxypropan-2-yl)-N-[4-(2-hydroxypropan-2-yl)phenyl]-3-oxo-2-[2-(2,2,2-trifluoroethoxy)phenyl]-2,3-dihydropyridazine-4-carboxamide] | 99
COc1cc(F)ccc1-n1cccc(C(=O)Nc2ccc(OC(F)F)nc2)c1=O [Example 16, N-[6-(difluoromethoxy)pyridin-3-yl]-1-(4-fluoro-2-methoxyphenyl)-2-oxo-1,2-dihydropyridine-3-carboxamide] | 69
CC(C)(O)c1ccc(NC(=O)c2cccn(-c3cc(F)ccc3OCC(F)(F)F)c2=O)cc1 [Example 113, 1-[5-fluoro-2-(2,2,2-trifluoroethoxy)phenyl]-N-[4-(2-hydroxypropan-2-yl)phenyl]-2-oxo-1,2-dihydropyridine-3-carboxamide] | 98
CC(C)(O)COc1ccc(NC(=O)c2cccn(-c3ccc(F)cc3OCC(F)(F)F)c2=O)cc1 [Example 60, 1-[4-fluoro-2-(2,2,2-trifluoroethoxy)phenyl]-N-[4-(2-hydroxy-2-methylpropoxy)phenyl]-2-oxo-1,2-dihydropyridine-3-carboxamide] | 92
COc1ccc(NC(=O)c2cccn(-c3ccccc3OCC(F)(F)F)c2=O)cn1 [Example 13, N-(6-methoxypyridin-3-yl)-2-oxo-1-[2-(2,2,2-trifluoroethoxy)phenyl]-1,2-dihydropyridine-3-carboxamide] | 96
O=C(Nc1ccc(C(O)(C(F)F)C(F)F)cc1)c1cn(C(F)F)nc(-c2ccccc2OCC(F)F)c1=O [Example 163, 6-[2-(2,2-difluoroethoxy)phenyl]-2-(difluoromethyl)-5-oxo-N-[4-(1,1,3,3-tetrafluoro-2-hydroxypropan-2-yl)phenyl]-2,5-dihydropyridazine-4-carboxamide] | 100
CC(C)(O)Cn1cc(C(=O)Nc2ccc(C(C)(C)O)cc2)c(=O)c(-c2ccccc2OCC(F)F)n1 [Example 174, 6-[2-(2,2-difluoroethoxy)phenyl]-2-(2-hydroxy-2-methylpropyl)-N-[4-(2-hydroxypropan-2-yl)phenyl]-5-oxo-2,5-dihydropyridazine-4-carboxamide] | 91
O=C(Nc1ccc(C(O)(C(F)F)C(F)F)cc1Cl)c1ccnn(-c2ccccc2OCC(F)F)c1=O [Example 160, N-[2-chloro-4-(1,1,3,3-tetrafluoro-2-hydroxypropan-2-yl)phenyl]-2-[2-(2,2-difluoroethoxy)phenyl]-3-oxo-2,3-dihydropyridazine-4-carboxamide] | 100
Cc1cc(C(=O)Nc2ccc(C(C)(C)O)cn2)c(=O)n(-c2ccccc2OCC(F)(F)F)n1 [Example 130, N-[5-(2-hydroxypropan-2-yl)pyridin-2-yl]-6-methyl-3-oxo-2-[2-(2,2,2-trifluoroethoxy)phenyl]-2,3-dihydropyridazine-4-carboxamide] | 99

Now from value to compound:

inhibition at 10 µM [%] | SMILES
99 | CC(C)(O)c1ccc(NC(=O)c2cn(CC(F)F)nc(-c3ccccc3OCC(F)F)c2=O)cc1 [Example 179, 6-[2-(2,2-difluoroethoxy)phenyl]-2-(2,2-difluoroethyl)-N-[4-(2-hydroxypropan-2-yl)phenyl]-5-oxo-2,5-dihydropyridazine-4-carboxamide]
99 | Cc1cc(C(=O)Nc2ccc(C(C)O)cc2)c(=O)n(-c2ccccc2OCC(F)F)n1 (racemic) [Example 139, rac-2-[2-(2,2-difluoroethoxy)phenyl]-N-[4-(1-hydroxyethyl)phenyl]-6-methyl-3-oxo-2,3-dihydropyridazine-4-carboxamide]
100 | O=C(Nc1ccc(C2CCCO2)cc1)c1ccnn(-c2ccccc2OCC(F)F)c1=O (racemic) [Example 144, rac-2-[2-(2,2-difluoroethoxy)phenyl]-3-oxo-N-[4-(oxolan-2-yl)phenyl]-2,3-dihydropyridazine-4-carboxamide]
55 | COc1cc(F)ccc1-n1cccc(C(=O)Nc2ccc(N3CCOCC3)cc2)c1=O [Example 19, 1-(4-fluoro-2-methoxyphenyl)-N-[4-(morpholin-4-yl)phenyl]-2-oxo-1,2-dihydropyridine-3-carboxamide]
96 | CC(C)(O)c1ccc(NC(=O)c2ccnn(-c3ccccc3OCC(F)F)c2=O)nc1 [Example 132, 2-[2-(2,2-difluoroethoxy)phenyl]-N-[5-(2-hydroxypropan-2-yl)pyridin-2-yl]-3-oxo-2,3-dihydropyridazine-4-carboxamide]
99 | O=C(Nc1ccc(OCC(F)(F)F)nc1)c1cccn(-c2ncncc2OCC(F)(F)F)c1=O [Example 110, 2-oxo-N-[6-(2,2,2-trifluoroethoxy)pyridin-3-yl]-1-[5-(2,2,2-trifluoroethoxy)pyrimidin-4-yl]-1,2-dihydropyridine-3-carboxamide]
98 | CC(C)(O)c1ccc(NC(=O)c2ccnn(-c3ccccc3OCC(F)(F)F)c2=O)nc1 [Example 128, N-[5-(2-hydroxypropan-2-yl)pyridin-2-yl]-3-oxo-2-[2-(2,2,2-trifluoroethoxy)phenyl]-2,3-dihydropyridazine-4-carboxamide]
70 | Cc1ccc(C(=O)Nc2ccc(C(C)(C)O)cc2)c(=O)n1-c1ccc(F)cc1OCC(F)(F)F [Example 100, 1-[4-fluoro-2-(2,2,2-trifluoroethoxy)phenyl]-N-[4-(2-hydroxypropan-2-yl)phenyl]-6-methyl-2-oxo-1,2-dihydropyridine-3-carboxamide]
100 | O=C(Nc1ccc(C(O)(C(F)F)C(F)F)nc1)c1cn(C2CC2)nc(-c2ccccc2OCC(F)F)c1=O [Example 189, 2-cyclopropyl-6-[2-(2,2-difluoroethoxy)phenyl]-5-oxo-N-[6-(1,1,3,3-tetrafluoro-2-hydroxypropan-2-yl)pyridin-3-yl]-2,5-dihydropyridazine-4-carboxamide]
